20 compounds from patent US20240199623A1 (ILDONG PHARMACEUTICAL CO., LTD., priority 2020, published 2024) can be followed below.

Each structure is given as a SMILES string. Converted amounts (≈) assume the structure as drawn.

As usually defined, the solubility is the dissolved amount per volume that the medium holds.

The target in series [1] is T1, human wild type-CFTR (Homo sapiens, UniProt P13569). Nature of the series: Short-circuit current measurement. It counts as cell-based. Also on record: expressed in transfected cells. Conditions: FRT cells expressing human wild type-CFTR; Forskolin 20 μM signal used as 100% activity; read-out: Short-circuit current measurement (EC50) Concentration range. From the text: Forskolin (Tocris cat. #1099), CFTRinh-172 (Tocris cat. #3430), amphotericin B (Tocris cat. #6930), dimethyl sulfoxide (Sigma cat. #D4540), EVC4000 Multi-Channel V/I Clamp (World Precision Instruments, Sarasota, FL), PowerLab 4/35 (AD Instruments, Castle Hill, Australia), Labchart Pro 7, GraphPad Prism 5 (GraphPad Software, Inc.). Fisher rat thyroid (FRT) cells expressing human wild type-CFTR were provided by Dr. Alan Verkman (University of California, San Francisco) and grown in DMEM/F12 medium (1:1) supplemented with 10% FBS, 2 mM glutamine, 100 units/ml penicillin and 100 μg/ml streptomycin. Snapwell inserts containing CF TR-expressing FRT cells were mounted in Ussing chambers (Physiologic Instruments, San Diego, CA). […] Forskolin, test compounds, and CFTRinh-172 were added to the apical and basolateral bath solution. Apical membrane current and short-circuit current were measured with an EVC4000 Multi-Channel V/I Clamp (World Precision Instruments, Sarasota, FL) and recorded using PowerLab 4/35 (AD Instruments, Castle Hill, Australia). Data were collected and analyzed with ADInstruments acquisition software Labchart Pro 7 software. The sampling rate was 4 Hz.
T1 sequence (P13569 whole entry): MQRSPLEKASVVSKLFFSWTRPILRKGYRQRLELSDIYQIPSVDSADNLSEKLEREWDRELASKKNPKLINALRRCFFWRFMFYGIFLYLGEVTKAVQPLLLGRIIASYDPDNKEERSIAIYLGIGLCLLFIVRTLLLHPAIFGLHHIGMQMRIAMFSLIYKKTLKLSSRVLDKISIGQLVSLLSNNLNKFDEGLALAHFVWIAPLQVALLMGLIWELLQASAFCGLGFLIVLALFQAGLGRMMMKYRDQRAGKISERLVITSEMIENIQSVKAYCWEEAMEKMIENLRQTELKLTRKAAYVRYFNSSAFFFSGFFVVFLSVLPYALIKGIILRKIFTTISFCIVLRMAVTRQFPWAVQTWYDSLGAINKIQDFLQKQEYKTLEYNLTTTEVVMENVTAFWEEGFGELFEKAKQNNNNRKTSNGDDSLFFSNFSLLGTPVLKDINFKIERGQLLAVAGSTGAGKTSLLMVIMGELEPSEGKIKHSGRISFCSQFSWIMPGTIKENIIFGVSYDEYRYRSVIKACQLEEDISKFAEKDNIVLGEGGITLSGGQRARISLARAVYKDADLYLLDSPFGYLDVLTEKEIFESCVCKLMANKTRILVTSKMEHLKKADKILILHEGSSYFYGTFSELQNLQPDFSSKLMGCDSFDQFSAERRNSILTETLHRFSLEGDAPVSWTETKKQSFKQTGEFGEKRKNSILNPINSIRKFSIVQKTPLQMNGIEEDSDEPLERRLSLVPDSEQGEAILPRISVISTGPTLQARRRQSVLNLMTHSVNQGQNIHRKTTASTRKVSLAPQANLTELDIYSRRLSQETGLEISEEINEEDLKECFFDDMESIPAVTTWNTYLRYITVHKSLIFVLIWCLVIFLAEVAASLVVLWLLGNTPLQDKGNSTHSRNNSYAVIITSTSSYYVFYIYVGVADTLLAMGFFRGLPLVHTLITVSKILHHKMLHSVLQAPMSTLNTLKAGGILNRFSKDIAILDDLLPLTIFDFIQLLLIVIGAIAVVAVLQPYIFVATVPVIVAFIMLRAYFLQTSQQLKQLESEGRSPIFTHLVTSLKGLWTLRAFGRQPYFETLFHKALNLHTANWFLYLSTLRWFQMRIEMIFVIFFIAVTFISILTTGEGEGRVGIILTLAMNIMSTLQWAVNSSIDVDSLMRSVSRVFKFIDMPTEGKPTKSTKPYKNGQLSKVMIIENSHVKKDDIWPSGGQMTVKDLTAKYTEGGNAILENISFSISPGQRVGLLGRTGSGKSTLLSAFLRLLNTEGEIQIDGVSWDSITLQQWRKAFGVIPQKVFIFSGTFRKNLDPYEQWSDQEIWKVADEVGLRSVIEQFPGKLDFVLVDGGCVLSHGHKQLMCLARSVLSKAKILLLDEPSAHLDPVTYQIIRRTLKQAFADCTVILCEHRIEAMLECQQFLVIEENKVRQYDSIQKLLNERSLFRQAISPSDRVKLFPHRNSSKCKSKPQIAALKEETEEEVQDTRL

In series [2] the target is T1, human wild type-CFTR. Put plainly: Cell-based YFP assay. More on the design: expressed in transfected cells; host or cells: CHO-K1 (Chinese hamster ovary). Conditions: CHO-K1 cells expressing human wild type-CFTR and YFP-H148Q/I152L; forskolin 20 μM = 100% activity; read-out: Cell-based YFP Assay (EC50) Concentration Range. The essentials: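 I⁻-driven YFP fluorescence quenching at 37 °C: 2 s baseline, addition of 140 mM iodide solution, then 14 s of readings at 0.4 s intervals. Cells were CHO-K1 expressing human wild-type CFTR plus YFP-H148Q/I152L. EC50 derived from averaged triplicates.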

Series [3] in a line: Phosphate-buffered saline (PBS) solubility of compounds. Conditions: aqueous buffer, thermodynamic from solid, PBS pH 7.5, 0.5 mg/mL, vortexed 90 min, filtered, LC-MS/MS, read-out: Solubility Range. The format is physicochemical. Here is the method:
PBS solutions (pH 7.5) were prepared according to the following compositions and stored at 4° C. Test compounds were dissolved in PBS (pH 7.5) at 0.5 mg/mL and vortexed for 90 min. The PBS solution was sequentially filtered through a 0.45, 1.2, […] syringe filter. Concentration of test compounds were determined using LC-MS/MS with appropriate dilution of the samples.

On to `COc1ccc(-c2ccnc3cc(C(=O)Nc4ccc(N5CCC(=O)CC5)cc4)nn23)cc1OC` [Compound 285, 7-(3,4-dimethoxyphenyl)-N-(4-(4-oxopiperidin-1-yl)phenyl)pyrazolo [1,5-a]pyrimidine-2-carboxamide], for which the EC50 in series [1] and in series [2] was < 200 nM each time.

With `COc1ccc(-c2ccnc3cc(C(=O)Nc4ccc(C(=O)N5CCN(C)CC5)cc4Cl)nn23)cc1OC` [Compound 137, N-(2-chloro-4-(4-methylpiperazine-1-carbonyl)phenyl)-7-(3,4-dimethoxyphenyl)pyrazolo [1,5-a]pyrimidine-2-carboxamide], the EC50 in series [1] and in series [2] was 200 to 2000 nM each time.

As to `COc1ccc(-c2ccnc3cc(C(=O)Nc4ccccn4)nn23)cc1OC` [Compound 17, 7-(3,4-dimethoxyphenyl)-N-(pyridin-2-yl)pyrazolo[1,5-a] pyrimidine-2-carboxamide], the EC50 in series [1] and in series [2] was < 200 nM in each case. For the same compound, in series [3], the solubility at 90 min is < 0.1 µg/mL.

Consider `COC(=O)c1ccc2c(c1)CCCN2C(=O)c1cc2nccc(-c3ccc(OC)c(OC)c3)n2n1` [Compound 133, methyl 1-(7-(3,4-dimethoxyphenyl)pyrazolo [1,5-a]pyrimidine-2-carbonyl)-1,2,3,4-tetrahydroquinoline-6-carboxylate], for which the EC50 in series [1] and in series [2] was < 200 nM in each case. Further, the solubility at 90 min in series [3] was < 0.1 µg/mL.

For the compound `COC(=O)c1ccc2c(c1)CN(C(=O)c1cc3nccc(-c4ccc(OC)c(OC)c4)n3n1)CC2` [Compound 131, methyl 2-(7-(3,4-dimethoxyphenyl)pyrazolo [1,5-a]pyrimidine-2-carbonyl)-1,2,3,4-tetrahydroisoquinoline-7-carboxylate], the EC50 in series [1] and in series [2] was < 200 nM throughout. Moreover, in series [3], the solubility at 90 min was < 0.1 µg/mL.

In the case of `COc1ccc(-c2ccnc3cc(C(=O)Nc4ccc(C(=O)N[C@H](C(=O)N5CCN(C)CC5)C(C)C)cc4)nn23)cc1OC` [Compound 146, (S)-7-(3,4-dimethoxyphenyl)-N-(4-((3-methyl-1-(4-methylpiperazin-1-yl)-1-oxobutan-2-yl)carbamoyl)phenyl) pyrazolo[1,5-a]pyrimidine-2-carboxamide], the EC50 in series [1] and in series [2] was < 200 nM throughout. Further, the solubility at 90 min in series [3] is < 0.1 µg/mL.

As for `CCOC(=O)N1CCN(C(=O)c2cc3nccc(-c4ccc(OC)c(OC)c4)n3n2)CC1` [Compound 111, ethyl 4-(7-(3,4-dimethoxyphenyl)pyrazolo[1,5-a]pyrimidine-2-carbonyl) piperazine-1-carboxylate], the EC50 in series [1] was ≥ 2000 nM; in series [2] it was 200 to 2000 nM.

As to `COC(=O)c1ccc2c(c1)CCN2C(=O)c1cc2nccc(-c3ccc(OC)c(OC)c3)n2n1` [Compound 130, methyl 1-(7-(3,4-dimethoxyphenyl)pyrazolo [1,5-a]pyrimidine-2-carbonyl)indoline-5-carboxylate], the EC50 in series [1] was 200 to 2000 nM; in series [2], < 200 nM. Besides, the solubility at 90 min in series [3] was < 0.1 µg/mL.

With `COc1ccc(-c2ccnc3cc(C(=O)Nc4ccc(N5CCCC5)cn4)nn23)cc1OC` [Compound 289, 7-(3,4-dimethoxyphenyl)-N-(5-(pyrrolidin-1-yl)pyridin-2-yl)pyrazolo[1,5-a]pyrimidine-2-carboxamide], the EC50 in series [1] and in series [2] was < 200 nM in each case.

Regarding `COc1ccc(-c2ccnc3cc(C(=O)Nc4ccc(C(=O)O)cc4)nn23)cc1OC` [Compound 14, 4-(7-(3,4-dimethoxyphenyl)pyrazolo[1,5-a]pyrimidine-2-carboxamido)benzoic acid], the EC50 in series [1] is ≥ 2000 nM; in series [2] it was 200 to 2000 nM. Also, the solubility at 90 min in series [3] was in the range of 0.1 to 10 µg/mL (≈ 0.239 to 23.9 µM).

`CCOC(=O)N1CCN(C(=O)c2cc3nccc(-c4ccc(OC)c(OC)c4)n3n2)CC1` [Compound 86, ethyl 4-(7-(3,4-dimethoxyphenyl)pyrazolo[1,5-a]pyrimidine-2-carbonyl) piperazine-1-carboxylate]: the EC50 was ≥ 2000 nM in series [1] and 200 to 2000 nM in series [2].

Turning to `COc1ccc(-c2ccnc3cc(C(=O)Nc4ccc(OC(=O)[C@@H](NC(=O)OC(C)(C)C)C(C)C)cc4)nn23)cc1OC` [Compound 200, 4-(7-(3,4-dimethoxyphenyl)pyrazolo[1,5-a]pyrimidine-2-carboxamido)phenyl(tert-butoxycarbonyl)-L-valinate], the EC50 in series [1] and in series [2] was < 200 nM in each case.

Turning to `COc1ccc(-c2ccnc3cc(C(=O)Nc4ccc(C(=O)O)cn4)nn23)cc1OC` [Compound 78, 6-(7-(3,4-dimethoxyphenyl)pyrazolo[1,5-a]pyrimidine-2-carboxamido) nicotinic acid], the EC50 in series [1] and in series [2] was 200 to 2000 nM in each case.

Consider `CCOC(=O)COc1ccc(NC(=O)c2cc3nccc(-c4ccc(OC)c(OC)c4)n3n2)cc1` [Compound 34, ethyl 2-(4-(7-(3,4-dimethoxyphenyl)pyrazolo [1,5-a]pyrimidine-2-carboxamido)phenoxy) acetate], for which the EC50 in series [2] was < 200 nM. The solubility at 90 min in series [3] is < 0.1 µg/mL.

Turning to `COc1ccc(-c2ccnc3cc(C(=O)Nc4ccc(C(=O)NCCN5CCN(C)CC5)cc4)nn23)cc1OC` [Compound 178, 7-(3,4-dimethoxyphenyl)-N-(4-((2-(4-methylpiperazin-1-yl)ethyl)carbamoyl)phenyl)pyrazolo[1,5-a]pyrimidine-2-carboxamide], in series [2], the EC50 fell in the range of 200 to 2000 nM. For the same compound, in series [3], the solubility at 90 min is > 10 µg/mL.

`COc1ccc(-c2ccnc3cc(C(=O)Nc4ccc(C(=O)N5CCOCC5)c(Cl)c4)nn23)cc1OC` [Compound 160, N-(3-chloro-4-(morpholine-4-carbonyl)phenyl)-7-(3,4-dimethoxyphenyl) pyrazolo[1,5-a]pyrimidine-2-carboxamide]: in series [2], the EC50 was 200 to 2000 nM. In addition, the solubility at 90 min in series [3] was < 0.1 µg/mL.

For `COc1ccc(-c2ccnc3cc(C(=O)Nc4ccc(C(=O)OCc5ccccc5)cn4)nn23)cc1OC` [Compound 114, benzyl 6-(7-(3,4-dimethoxyphenyl)pyrazolo [1,5-a]pyrimidine-2-carboxamido)nicotinate], the EC50 in series [2] was < 200 nM. For the same compound, the solubility at 90 min in series [3] is < 0.1 µg/mL.

Consider `COC(=O)[C@@H]1CCCN1C(=O)c1ccc(NC(=O)c2cc3nccc(-c4ccc(OC)c(OC)c4)n3n2)cc1` [Compound 47, methyl (4-(7-(3,4-dimethoxyphenyl)pyrazolo [1,5-a]pyrimidine-2-carboxamido)benzoyl)-L-prolinate], for which, in series [2], the EC50 was < 200 nM. Also, the solubility at 90 min in series [3] is < 0.1 µg/mL.

Take `COc1ccc(-c2ccnc3cc(C(=O)Nc4ccc(C(=O)N[C@@H](CC(C)C)C(=O)O)cc4)nn23)cc1OC` [Compound 85, (4-(7-(3,4-dimethoxyphenyl)pyrazolo[1,5-a]pyrimidine-2-carboxamido)benzoyl)-L-leucine]: in series [2], the EC50 is 200 to 2000 nM. Besides, in series [3], the solubility at 90 min is > 10 µg/mL.

Take `COc1ccc(-c2ccnc3cc(C(=O)Nc4ccc(C(=O)O)cc4F)nn23)cc1OC` [Compound 156, 4-(7-(3,4-dimethoxyphenyl)pyrazolo[1,5-a]pyrimidine-2-carboxamido)-3-fluorobenzoic acid]: the EC50 in series [2] is < 200 nM. Further, in series [3], the solubility at 90 min lay within 0.1 to 10 µg/mL (≈ 0.229 to 22.9 µM).
